According to patent US11891655B2, “Probe for selectively characterizing enzymes involved in xenobiotic metabolism and method of making and using the same” (Battelle Memorial Institute, priority 2017, dated 2024):

Assays:
[1] = system: GSTs in mouse liver cytosol
[2] = system: cytosolic fraction of mouse liver lysate; assay type: binding; conditions: increasing probe concentrations; SDS-PAGE
Description: FIG. 15B show results from labeling glutathione transferase (GSH and GST) with probe embodiments described herein using 1 μM mouse liver cytosol.
(§1) Concentration dependent labeling of a recombinant GST (FIG. 15A) was evaluated. The two probe embodiments, GSH-ABP-G and GST-ABP-H, were applied with increasing concentrations to the recombinant human GSTM1, a GST isoenzyme that is highly expressed in mammalian liver. […] Both probes were then applied with increasing concentrations to the cytosolic fraction of mouse liver lysate to further test probe targeting (FIG. 15B). Both probes strongly label two distinct bands at 24 kDa. The lower band is likely GSTP1, a 23.6 kDa protein highly abundant in the liver. […] To determine the specific GST isoforms targeted by each probe, LC-MS based proteomics analyses of mouse liver labeling, and labeling in the presence of specific inhibitors were performed (FIGS. 16A and 16B). […] 27 probe-targeted proteins were determined to be statistically significant targets of the GSH-ABP-G probe embodiment at a fold-change of 3 over no UV exposure controls. Of these 27 proteins, 8 are known GSTs and include members of mu, alpha, pi, theta, kappa, and zeta classes. The remaining proteins include five proteins with known GSH binding, one with known antioxidant and drug binding activity, and five proteins highly abundant in liver with no known GSH binding activity. […]

recombinant human GSTM1 = target: T1, recombinant human GSTM1 (Homo sapiens, UniProt P09488); assay: Concentration-dependent probe labeling of recombinant GST (SDS-PAGE); assay type: binding; conditions: increasing probe concentrations, 30 minutes incubation, rhodamine click
T1 sequence (P09488 1-218): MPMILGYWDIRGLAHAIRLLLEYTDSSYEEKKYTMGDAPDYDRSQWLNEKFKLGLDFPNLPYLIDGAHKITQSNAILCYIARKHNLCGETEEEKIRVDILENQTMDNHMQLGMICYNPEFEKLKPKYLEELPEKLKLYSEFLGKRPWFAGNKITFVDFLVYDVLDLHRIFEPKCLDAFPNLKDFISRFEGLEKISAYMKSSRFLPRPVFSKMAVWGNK
Description: FIG. 15A show results from labeling glutathione transferase (GSH and GST) with probe embodiments described herein using 1 μM recombinant human GSTm1.
as §1

[3] = system: GST isoenzymes in lung lysate; assay: LC-MS proteomics of probe-enriched mouse lung lysate; assay type: binding
[4] = system: GSTs (H site) in mouse liver cytosol; conditions: read-out: EC50 of inhibition of GST-ABP-H probe labeling, 10 μM probe
[5] = system: glucuronidase activity in the gut microbiome; assay type: in vivo, mouse; conditions: vancomycin in drinking water 0.1 mg/mL; 4 of 5 sets of litter mates
Description: For the glucuronidase studies, female C57BL/6J mice age 6-8 weeks were purchased from Jackson Laboratories and housed with a 12 hour light/12 hour dark light cycle. Food (PMI 5002) and water were provided ad libitum. Mice were acclimated for 7 days prior to the onset of any treatment. During this time, littermates were co-housed. After this time, mice were placed in separate cages for antibiotic treatment. One set of littermates (n=5) were exposed to vancomycin in drinking water (0.1 mg/mL). The other set were given normal water. To monitor for adverse reactions to the antibiotics, researchers could not be blinded to treatment group during exposure, and were not blinded during subsequent analysis.
Microbial cells from the mouse gut were suspended in PBS with protease inhibitor (cOmplete EDTA-free Protease Inhibitor, Roche) and lysed via bead beating (Bullet Blender). 4-methylumbelliferyl-s-D-glucuronide (4-MUG; 1 mM) was added to 50 μL lysate (0.9 μg total protein) to achieve a final concentration of 500 μM. […] Fluorescence was measured using a plate reader (Molecular Biosciences), and amount of hydrolyzed substrate was calculated relative to a standard curve. Rate (mM/s) was determined via linear regression (GraphPad Prism) and activity was calculated as rate per μg protein. […]

gut microbiota = assay type: in vivo, mouse; conditions: vancomycin in drinking water 0.1 mg/mL
[6] = 10 μM probe, mouse liver cytosol

| labeling of recombinant human GSTM1 (recombinant human GSTM1) | number of GST isoenzymes enriched by probe in lung lysate [3] | SMILES | number of GSTs enriched by probe in mouse liver [1, 6] | selectivity of labeling in mouse liver cytosol [2] | other results |
| --- | --- | --- | --- | --- | --- |
| concentration-dependent targeting | 3 | C#CCNC(=O)C(Cc1ccc(C(=O)c2ccccc2)cc1)NC(=O)CSCC(NC(=O)CC[C@H](N)C(=O)O)C(=O)NCC(=O)O (some centres unmarked) [GSH-ABP-G, N5-(3-((2-((3-(4-benzoylphenyl)-1-oxo-1-(prop-2-yn-1-ylamino)propan-2-yl)amino)-2-oxoethyl)thio)-1-((carboxymethyl)amino)-1-oxopropan-2-yl)glutamine] | 8 | high selectivity | number of statistically significant probe-targeted proteins ([1]; fold-change of 3 over no UV exposure controls, 10 μM probe): 27 |
| concentration-dependent targeting | 11 | C#CCCCC(=O)Nc1cccc2c1C(=O)C(Cl)=C(Cl)C2=O [GST-ABP-H, N-(6,7-dichloro-5,8-dioxo-5,8-dihydronaphthalen-1-yl)hex-5-ynamide] | 12 | more susceptible to off-target labeling |  |
|  |  | CCN1C(=O)C=CC1=O [N-ethylmaleimide, reference compound] |  |  | competition of GST-ABP-H labeling (proteomic analysis) ([1]; competitor 100 μM, mouse liver cytosol): failed to compete for binding of most GST isoenzymes |
|  |  | CCCCCCSC[C@H](NC(=O)CC[C@H](N)C(=O)O)C(=O)NCC(=O)O [S-hexylglutathione, reference compound] |  |  | fold change inhibition of GST-ABP-H and GSH-ABP-G labeling of GSTA3, M1, and P1 ([1]; S-hexylglutathione competed liver cytosol, p≤0.05): > 3.0; EC50 [4]: 41.5 µM |
|  |  | CN[C@H](CC(C)C)C(=O)N[C@H]1C(=O)N[C@@H](CC(N)=O)C(=O)N[C@H]2C(=O)N[C@H]3C(=O)N[C@H](C(=O)N[C@H](C(=O)O)c4cc(O)cc(O)c4-c4cc3ccc4O)[C@H](O)c3ccc(c(Cl)c3)Oc3cc2cc(c3O[C@@H]2O[C@H](CO)[C@@H](O)[C@H](O)[C@H]2O[C@H]2C[C@](C)(N)[C@H](O)[C@H](C)O2)Oc2ccc(cc2Cl)[C@H]1O [Vancomycin] |  |  | glucuronidase activity in gut microbiome after treatment [5]: reduced, but did not eliminate; relative abundance of Firmicutes in gut microbiota (gut microbiota): dramatically decreased |
